“And” between values parts separate entries of the source, which are not always exact repeats. Equal entries are not always repeated.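 In this assay, cells in 96-well plates receive the compound at five concentrations for 48 hours. Endpoints are linearly interpolated between the surrounding concentrations. GI50 marks 50% less growth. TGI marks complete inhibition of growth.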 Where a SMILES comes first, the peptide text is derived from it. [ ]: non-standard residue; d: D form. The star is where a group is joined. ξ: configuration not given here. X3 = COc1ccc(C(N*)c2ccc(OC)cc2)cc1; NMeF = CN[C@@H](Cc1ccccc1)C(=O)O; NMeD = CN[C@@H](CC(=O)O)C(=O)O; NMeV = CN[C@H](C(=O)O)C(C)C; ξNMeV = CNC(C(=O)O)C(C)C; Boc = CC(C)(C)OC(=O)*; ξNMeA = CNC(C)C(=O)O; ξV = CC(C)C(N)C(=O)O Where only a bound is given, the exact number is not on record here.

Holding throughout (experiment): growth of human tumour cells (NCI), 48 h
For test [1], the system named is MDA-N.
Test [2] deals with DMS 114 small cell lung.
For test [3], the system named is DMS 273 small cell lung.
Test [4] relates to HOP-18 NSCLC.
Test [5] has as its system KM20L2 colon.
Test [6] relates to XF 498 CNS.
Test [7] relates to RXF-631 renal.
Test [8] has as its system SN12K1 renal.

For `O=C(O)c1nc2nc(Cl)c(Cl)nc2[nH]1`, in test [1], the TGI is greater than 100 µM.
`COc1nc(NC2OC(COC(C)=O)C(OC(C)=O)C(OC(C)=O)C2OC(C)=O)c2c(OC(C)=O)cc(=O)oc2n1` (stereo not given): the TGI in test [2], in test [3], in test [4], in test [5] and in test [6] was greater than 100 µM throughout.
For the compound `CC(=O)O/N=C(/C)c1ccccc1O`, the TGI in test [2], in test [3], in test [4], in test [5] and in test [6] was greater than 100 µM in each case.
`CC(C)(C)c1cc2c(O)c3cccc4c(=O)c5cccc6c5-c(c34)c2c(c1)c6=O`: the TGI was greater than 100 µM in test [3], greater than 100 µM in test [4], greater than 100 µM in test [5] and 88.5 µM in test [6].
`C=C(C)CCOC(c1ccccc1)(c1ccccc1)c1ccccc1`: the values for the TGI in test [5], in test [7] and in test [6] were greater than 100 µM, greater than 100 µM and 90.3 µM, respectively.
As to `O=[N+]([O-])c1ccc(Cl)cc1N/N=C/c1ccnc2ccccc12`, the TGI in test [1] is greater than 100 µM.
As for `CCCCN(CCCC)C(=O)C(=O)C(C(=O)c1ccc(OC)cc1)c1ccc(OC)cc1` (stereo not given), the TGI in test [2], in test [4], in test [5] and in test [7] was greater than 100 µM in each case.
Consider `Cc1ccc(/C=C/C(=O)CCN(C)C)cc1`, for which the TGI worked out at 32.5 µM in test [2]; 25.6 µM in test [3]; 38.4 µM in test [4]; 37.2 µM in test [5]; 28.5 µM in test [6].
For the compound `O=C(Nc1ccccc1-c1nn(C(=S)Nc2ccccc2)c(=S)n(C(=S)Nc2ccccc2)c1=O)C(F)(F)F`, the TGI was 38.9 µM in test [2]; greater than 100 µM in test [3]; greater than 100 µM in test [4]; greater than 100 µM in test [5]; 61.5 µM in test [6].
In the case of `COc1ccc(C)cc1-c1cc(Sc2ccccc2)c(-c2cc(C)ccc2OC)o1`, the TGI was greater than 31.6 µM in test [2]; greater than 31.6 µM in test [3]; greater than 31.6 µM in test [4]; greater than 31.6 µM in test [5]; greater than 31.6 µM in test [7]; greater than 100 µM in test [6].
Take `C/C(CCn1[nH]c(=O)ccc1=O)=N\NC(=O)C(=O)NN`: the TGI in test [3], in test [4], in test [5], in test [7] and in test [6] was greater than 100 µM throughout.
As for `O=S(=O)(N/N=C/c1cccc(/C=N/NS(=O)(=O)c2ccccc2)c1)c1ccccc1`, the TGI in test [2], in test [3], in test [4], in test [5] and in test [7] was greater than 100 µM throughout.
Turning to `CN(C)CCn1c2c3ccccc3ccc2c2oc(=O)c3ccccc3c21`, the TGI in test [4] turned out to be 35.3 µM; in test [5], 33.8 µM; in test [7], 31.5 µM; in test [6], 30.1 µM.
The compound `Oc1[nH]c2ccccc2c1N=Nc1nc(-c2ccc(Br)cc2)cs1` returned a TGI in test [1] greater than 100 µM.
For the compound `c1ccc(NCn2cnc3ccccc32)cc1`, the TGI in test [2], in test [3], in test [4], in test [5], in test [7] and in test [6] was greater than 100 µM each time.
In turn, `CCOC(=S)SCC(=O)O` displayed a TGI in test [1] greater than 100 µM.
Compound `NC(=O)C(=Cn1c(=S)[nH]c2ccc([N+](=O)[O-])cc21)C(N)=O` yielded a TGI in test [1] greater than 100 µM.
With `CC1(C)OC1COc1c2occc2cc2ccc(=O)oc12` (stereo not given), in test [1], the TGI is greater than 100 µM.
Turning to `Cc1ccc(Oc2ccc(C)cc2N)cc1`, the TGI in test [2], in test [3], in test [4] and in test [5] was greater than 100 µM each time.
For the compound `Cc1cc2c(C)[nH]nc2c(C(=O)O)c1C`, the TGI in test [2], in test [3], in test [5] and in test [6] was greater than 100 µM in each case.
Take `O=C1C=CC(=O)c2nc3c(cc21)CCC3`: the TGI in test [2] was 42.5 µM; in test [3], 47.4 µM; in test [4] it was 39.8 µM; in test [7], greater than 100 µM; in test [6], 32.9 µM.
In turn, `COc1cccc(C2SC(N)=Nc3c2c(C)nn3C(=O)c2ccccc2O)c1` (stereo not given) had a TGI in test [1] greater than 10 µM.
As to `CC(C)=CCC(O)C1=CC(=O)c2c(O)ccc(O)c2C1=O` (stereo not given), in test [1], the TGI came to 2.3 µM.
For `CN(C)CC1CC/C(=C\c2ccc(O)cc2)C1=O` (stereo not given), the TGI in test [2] was 23.5 µM; in test [3] it was 9.68 µM; in test [4], 15.9 µM; in test [5], 22.1 µM; in test [1] it was 6.8 µM; in test [8], 3.4 µM. The compound further had a TGI in test [6] of 11.3 µM.
On to `C=CC[C@H](C[C@H](C[C@H](C[C@H](C[C@H](C[C@H](C[C@H](C[C@H](C[C@H](C[C@H](CCCCC)OC)OC)OC)OC)OC)OC)OC)OC)OC)OC`, for which the TGI in test [2], in test [3], in test [4], in test [5] and in test [6] was greater than 100 µM in each case.
In the case of `COC(=O)C(CCCN1C(=O)c2ccccc2C1=O)C(=O)OC`, the TGI in test [2], in test [3], in test [4], in test [5] and in test [6] was greater than 100 µM in each case.
On to `O=C(/C=C/c1ccc(O)cc1)c1ccc(O)cc1`, for which the TGI was 43.8 µM in test [2]; 36.9 µM in test [3]; greater than 100 µM in test [4]; 47 µM in test [5]; greater than 88.4 µM in test [1]; 34.1 µM in test [6].
In the case of `Cc1ccc(/C=C/C(=O)c2cccc3ccccc23)cc1`, the TGI stood at 47.2 µM in test [3], 31 µM in test [5] and 28.7 µM in test [6].
As for `N[C@@H]1CCCC[C@@H]1N.O=P([O-])([O-])CN(CCN(CP(=O)([O-])[O-])CP(=O)([O-])[O-])CP(=O)([O-])[O-].[Pt+2]`, in test [5], the GI50 is greater than 25 µM and the TGI was greater than 25 µM.
For the compound `O=C1CN(c2cccc(Cl)c2)C(=O)CN1CCN1CC(=O)N(c2cccc(Cl)c2)CC1=O`, the TGI in test [1] was greater than 100 µM.
On to `CC(=O)CC(OC(C)=O)C1=CCC2C(CC1C)OC(=O)C2C` (stereo not given), for which, in test [1], the TGI was greater than 100 µM.
Still for that read-out and setting: the figure for `C/C(=C\CBr)CCC(Br)C(C)(C)Br` (stereo not given) is greater than 100 µM.
Regarding `CC(=O)NNc1nc(C)c(C(=O)/C=C/c2ccc(NC(C)=O)cc2)s1`, the TGI in test [3], in test [4], in test [5] and in test [7] was greater than 100 µM throughout.
With `CCOC(=O)C1=C(C(=O)OCC)C2c3ccccc3C=CN2C(C(=O)OCC)=C(SC)S1` (stereo not given), the TGI in test [2], in test [3] and in test [5] was greater than 100 µM each time.
As to `S=c1sc2c(n1-c1ccccc1)NC=NC2S` (stereo not given), the TGI in test [2] is greater than 100 µM; in test [3], greater than 100 µM; in test [4], 92.1 µM; in test [5], greater than 100 µM; in test [6] it was greater than 100 µM.
In the case of `O=C(O)c1ccc2c(c1C(=O)O)C(=O)OC2(c1ccc(O)cc1)c1ccc(O)cc1`, the TGI in test [1] was greater than 100 µM.
In the case of `COc1cc(C2CC(C)(O)Oc3cc4c(cc32)OCO4)cc(OC)c1OC` (stereo not given), the TGI in test [1] was found to be 0.43 µM.
Turning to `COc1ccc(C(NC(=O)C[C@@H](C(=O)N(C)C(C)C(=O)O)N(C)C(=O)[C@@H]2CCCN2C(=O)[C@H](C(C)C)N(C)C(=O)C(C(C)C)N(C)C(=O)[C@H](Cc2ccccc2)N(C)C(=O)C(NC(=O)OC(C)(C)C)C(C)C)c2ccc(OC)cc2)cc1` (stereo not given in full) (Boc-[ξV][NMeF][ξNMeV][NMeV]P[NMeD](X3)[ξNMeA]-OH), the TGI was 33.4 µM in test [2]; 30.9 µM in test [3]; 37.6 µM in test [5]; 32.7 µM in test [1]; 29.5 µM in test [6].
Consider `CC(=O)OCCOCNC(=S)N/N=C(\C)c1cnccn1`, for which the TGI in test [2] was 51.4 µM; in test [3], 67 µM; in test [4] it was 97.5 µM; in test [5], 81.3 µM; in test [6], greater than 100 µM.
For `CCCCCC[C@@H]1CCC2C(CO)[C@@H](O)CC[C@@H]2C1` (stereo not given in full), in that order: 37.5 µM, 39.4 µM, 43 µM, 33.7 µM and 39.8 µM.
In test [1], `O=S(=O)(c1ccccc1)N1CCN(S(=O)(=O)c2ccccc2)c2ccccc21` displayed a TGI greater than 100 µM.
Same read-out and setting: with `CC1=C2C(=C[C@@](C)(CO)[C@@H]2O)C(=O)[C@](C)(O)C12CC2` the figure was 0.0272 µM and 0.0105 µM.
